# Assay results as given in US20190204342A1, “METHODS AND USES OF MITOFUSINS” (NESTEC S.A., priority 2014, published 2019).
# Key:
# mitochondrial Complex I = test: Metformin inhibition of mitochondrial respiration (respirometry, metformin titrated); assay type: biochemical; details: liver mitochondria from WT and Mfn1 LKO mice, malate, glutamate, ADP
# Experimental: Freshly extracted mitochondria from WT and Mfn1LKO mice were homogenized in respiration medium and 2 mg of tissue were used for respirometry analyses. In them, complex I activity was stimulated by the addition of malate and glutamate. Then, ADP was added to achieve maximal coupled respiration and metformin was subsequently titrated.
# Freshly extracted mitochondria from WT and Mfn1 LKO mice were resuspended in respiration medium and 100 μg of protein were used for respirometry analyses. Complex I activity was stimulated by the addition of malate and glutamate. Then, ADP was added to achieve maximal coupled respiration and metformin was subsequently titrated.
# [1] = Hypoglycemic effect of metformin in high-fat diet fed control and Mfn1LKO mice (blood glucose); assay type: in vivo; details: metformin 125 mg/kg injected after overnight fast; 8 weeks high-fat diet; Mfn1LKO vs control mice
# Source text: 12 week old Control and Mfn1 LKO mice were fed for 8 weeks with a high-fat diet (D12492, Research Diets Inc., USA).
# AMPK = AMPK activation in liver after metformin injection (western blot of markers CRTC2, elF2alpha, GAPDH); assay type: in vivo; details: metformin 125 mg/kg; livers taken 90 minutes later; high-fat diet; Mfn1 LKO vs control mice
# Experimental: 12 week old Control and Mfn1 LKO mice were fed for 8 weeks with a high-fat diet (D12492, Research Diets Inc., USA). Then, mice were fasted overnight and injected with either saline (as vehicle) or metformin (125 mg/kg). Mice were sacrificed 90 minutes later and livers were immediately extracted and frozen. Protein extracts were obtained and used for western blot analyses to test the markers of AMPK activation: CRTC2, elF2alpha and GAPDH.
compound,measurement,setting,value
"CN(C)C(=N)N=C(N)N [metformin, Metformin]",mitochondrial Complex I respiration inhibition,mitochondrial Complex I,inhibited more in the Mfn1 LKO mice than in the control mice
same,hypoglycemic effect (blood glucose levels),[1],enhanced in Mfn1LKO mice
same,AMPK activation (markers of AMPK activation),AMPK,enhanced AMPK activation
